# In patent US20060258754A1, “Method of treating endothelial dysfunction, oxidative stress and related diseases” (priority 2004, published 2006):
# Legend:
# [1] = human PCOS; cited from earlier work
# [2] = several publications; cited from earlier work
# aortic rings = assay: Acute incubation of diabetic rabbit aortic rings: acetylcholine relaxation; parameters: species or system alloxan-diabetic rabbits; settings: acute incubation 1 μM, medium and higher concentrations of acetyl choline, FIG. 7
# Description: Male California rabbits, weighing 2-2.5 kg, were provided by the vivarium of the Biomedicine Institute-UFC. Diabetes was induced by intraperitoneal injection of alloxan (150 mg/kg) and only animals with plasma glucose concentration above 200 mg/dl were included in the study. Age-matched euglycemic rabbits were used as controls.
# Kidneys and aortic rings are harvested from diabetic rabbits after 3 weeks of alloxan injection. They are perfused with KHS containing 1 μM D-chiro-inositol, pinitol, dibutyryl D-chiro-inositol, myo-inositol or saline for 1 hour. Dose response curves for acetylcholine are then performed following prior phenylephrine vasoconstriction as described. At least 6 separate experiments will be performed each in duplicate.
# Kidneys and aortic rings were harvested from diabetic rabbits after 3 weeks of alloxan injection. The animals were sacrificed under sodium pentobarbital anesthesia (Hypnol®, 150-200 mg/kg). […]. Rabbit kidneys were obtained from male New Zealand rabbits (1-1.5 kg) after cannulation of the renal artery in situ. […] The alterations in perfusion pressure are continuously recorded in a four-channel polygraph (Narco Biosystems, Houston, Tex., USA) by means of a pressure transducer (P23 Gould Stratham, Oxnard, Calif., USA). […]
# diabetic RbCC = assay: Relaxant response of diabetic RbCC to NO and Ach after in vitro inositol addition; settings: in vitro inositol addition (one hour)
# Description: NO action was investigated in aortic rings and RbCC. […] The data in FIGS. 14 are expressed as mean±SEM of 5 experimental units. * p<0.05, ANOVA followed by Tukey-Kramer, diab (C) vs. Inositol treated. # p<0.05, ANOVA followed by Tukey-Kramer, Eugly vs. Inositol treated. In FIG. 14, Veh=vehicle; C=diabetic control; Diab=diabetic control; Eugly=euglycemic tissue. Relaxation was restored toward or to normal by incubation with inositols.
SMILES,"ovulation, glucose tolerance and metabolic balance in PCOS [1]","hyperglycemia, triglyceridemia and glucose disposal [2]",restoring vasorelaxant effect in aortic rings (aortic rings),restoring vasorelaxant effect in aortic rings (aortic rings; listed as dibutyryl D-chiro-inositol),relaxant response to graded concentrations of NO and to Ach (diabetic RbCC)
"OC1C(O)C(O)C(O)C(O)C1O [DCI, D-chiro-inositol]","effective in human PCOS in restoring ovulation, glucose tolerance and metabolic balance","effective decrease of hyperglycemia, triglyceridemia and enhanced glucose disposal",–,–,–
"CCCC(=O)O[C@@H]1[C@@H](O)[C@@H](O)[C@H](O)[C@H](O)[C@H]1OC(=O)CCC [dbDCI, 3,4-dibutyryl-D-chiroinositol]",–,–,more effective than myoinositol,clearly more effective than myo-inositol,more effective than the other three inositols
